These results are taken from article PMC6812009, “Covalent Aurora A regulation by the metabolic integrator coenzyme A” (Redox Biology, 2019).

The term IC50 denotes the concentration needed to halve the response being measured. As usually defined, the stoichiometry N is the number of molecules, sites or subunits per partner or assembly.

In assay [1] the test system is mouse oocytes. Kind of assay: Microinjection of mouse oocytes, spindle formation and chromosome alignment. To be noted: injected with 3 mM compound, 17 h after GV release. It counts as cell-based. The protocol: Mouse oocytes arrested at the GV stage were injected with different concentrations of CoA (0.15–5 mM). Since the commercial preparation of CoA used for microinjection contained 3 mol of lithium ions per mole of CoA, control oocytes were injected with an equivalent amount of LiCl. In a separate study, oocytes were injected with 3 mM CoA, ADP, AMP, 3′-5′-ADP and pantetheine. To examine the effect of injected compounds on spindle formation, oocytes were fixed 17 h after GV release and stained for alpha-tubulin (green) and DNA (blue).

Assay [2] relates to FLAG-tagged Aurora A in HEK293/Pank1β cells. Description: Aurora A CoAlation in cells treated with oxidising agents (FLAG immunoprecipitation, anti-CoA immunoblot). It counts as cell-based, human. To be noted: 30 min; 250 μM H2O2, 500 μM diamide, 50 μM menadione, 10 μM phenylarsine oxide.
Assay [3] shares this test system. Kind of assay: Aurora A Thr 288 phosphorylation and dimerization in cells treated with oxidising agents (immunoblot). Type of assay: cell-based, human. To be noted: 30 min treatment; for Formation of Aurora A dimers in cells: non-reducing conditions; for Aurora A phosphorylation at Thr 288 in cells: samples separated in the presence of DTT. (In general: Immunoblotting shows a protein as a band on a membrane.)

The target in assay [4] is T1, T217E Aurora A (Homo sapiens, UniProt O14965, T217E).
T1 construct: For enzyme and DSF assays, full-length human Aurora A and Aurora B and 1–43 TPX2 were produced; made in house; host or cells: E. coli
T1 sequence (O14965 1-403 T217E): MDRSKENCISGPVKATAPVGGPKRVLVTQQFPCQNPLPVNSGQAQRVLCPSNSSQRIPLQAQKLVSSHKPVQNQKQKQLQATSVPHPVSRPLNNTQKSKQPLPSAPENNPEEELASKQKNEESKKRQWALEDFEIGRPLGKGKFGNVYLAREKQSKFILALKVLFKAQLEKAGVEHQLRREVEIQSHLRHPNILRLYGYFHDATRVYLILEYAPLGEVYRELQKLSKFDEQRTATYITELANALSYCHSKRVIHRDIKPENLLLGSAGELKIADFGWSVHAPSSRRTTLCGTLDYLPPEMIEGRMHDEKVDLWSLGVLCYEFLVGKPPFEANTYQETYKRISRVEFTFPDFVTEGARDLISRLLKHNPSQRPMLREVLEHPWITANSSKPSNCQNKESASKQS
Description: Thermal shift assay (differential scanning fluorimetry). Type of assay: binding. Conditions: 5 mM ATP, 5 mM CoA or 0.1 mM MLN8237. On the procedure: (§1) Asp274Asn and Thr217Glu Aurora A mutants were generated by PCR-site directed mutagenesis, expressed and purified as described previously. Cys290Ala Aurora A was generated using standard procedures, and purified as described.
(§2) Thermal-shift assays were performed with a StepOnePlus Real-Time PCR machine (Life Technologies) using Sypro-Orange dye (Invitrogen) and thermal ramping (0.3 °C in step intervals between 25 and 94 °C). All proteins were diluted to a final concentration of 5 μM in 50 mM Tris/HCl, pH 7.4 and 100 mM NaCl in the presence or absence of the indicated concentrations of ligand (final DMSO concentration no higher than 4 % v/v). CoA, dephosphoCoA or kinase inhibitors diluted from 10 mM DMSO stocks were assayed as described previously. Normalized data were processed using the Boltzmann equation to generate sigmoidal denaturation curves, and average Tm/ΔTm values calculated as previously described using GraphPad Prism software.
Background: In DSF a fluorescence change marks the thermal transition of the protein.

For assay [5], the target named is T2, WT Aurora A (T288 phosphorylated, active) (Homo sapiens, UniProt O14965).
T2 construct: Bacterially expressed full-length His-Aurora A was used to determine the IC50 value for CoA; made in house; host or cells: E. coli BL21 (DE3) pLysS
T2 sequence (O14965 1-403): T1 sequence (O14965 1-403 T217E) with E217T
The assay is described as above. Conditions: 5 mM ATP, 5 mM CoA or 0.1 mM MLN8237; for CoA dependent on non-reducing conditions. It counts as binding. The protocol: as §1, §2

In assay [6] the target is T3, Aurora A (inactive), unphosphorylated (PP1-treated) (Homo sapiens, UniProt O14965).
T3 construct: For enzyme and DSF assays, full-length human Aurora A and Aurora B and 1–43 TPX2 were produced; made in house; host or cells: E. coli
T3 sequence (O14965 1-403): T1 sequence (O14965 1-403 T217E) with E217T
Description: Lanthascreen Eu Kinase FRET binding assay. The protocol:
(§3) A Lanthascreen Eu Kinase FRET Binding Assay (Invitrogen) was employed to determine IC50 values for the interaction of Aurora A with CoA, dpCoA, ATP, and ADP. […] Recombinant Aurora A was incubated with Europium-conjugated anti-histidine tag antibody and an Alexa Fluor 647-labelled tracer, which binds to the ATP binding pocket of Aurora A. The close proximity of the anti-histidine (epitope-tag) antibody and the tracer results in a high degree of FRET (fluorescence resonance energy transfer) from the europium donor fluorophore to the Alexa Fluor 647 acceptor fluorophore. ATP-competitive inhibitors, such as CoA, displace the tracer from the active site, causing a loss of FRET signal. Assay set-up was performed as described by the manufacturer. Briefly, the time-resolved fluorescence resonance energy transfer assay (TR-FRET) was performed in black, low volume 384 well plates (Corning). Each well contained 5 nM kinase, 2 nM Eu-anti-His antibody and 10 nM kinase tracer 236 in kinase buffer A (50 mM Hepes pH 7.5, 10 mM MgCl2, 1 mM […], 0.01% (v/v) Brij-35), varying amounts of CoA, dpCoA, ATP, and ADP. The reaction mix was incubated for 1h at room temperature. The signal was measured at 665/620 nm emission ratio using BMG LABTECH plate reader (PHERAstar). All assays were performed using duplicates. The 11-point response curves were generated using GraphPad Prism software from the inhibition data generated.
A general note: In TR-FRET formats the signal depends on donor and acceptor labels being close together.

For assay [7], the target named is T4, Aurora A (active), T288 phosphorylated (Homo sapiens, UniProt O14965).
T4 construct: For enzyme and DSF assays, full-length human Aurora A and Aurora B and 1–43 TPX2 were produced; made in house; host or cells: E. coli
T4 sequence (O14965 1-403): T1 sequence (O14965 1-403 T217E) with E217T
Description: Lanthascreen Eu Kinase FRET binding assay. To be noted: T288 phosphorylated Aurora A; read-out: Aurora A (active) IC50 (μM), binding assay. On the procedure: as §3

Assay [8] deals with T5, C290A Aurora A (Homo sapiens, UniProt O14965, C290A).
T5 construct: For enzyme and DSF assays, full-length human Aurora A and Aurora B and 1–43 TPX2 were produced; made in house; host or cells: E. coli BL21 (DE3) pLysS
Kind of assay: Thermal shift assay (differential scanning fluorimetry). Conditions: 5 mM ATP or 5 mM CoA. It counts as binding. The protocol: as §1, §2

The target of assay [9] is T6, kinase-dead D274N (inactive) Aurora A (Homo sapiens, UniProt O14965, D274N).
T6 construct: For enzyme and DSF assays, full-length human Aurora A and Aurora B and 1–43 TPX2 were produced; 6His (N); made in house; host or cells: E. coli
The description is as above. Type of assay: binding. To be noted: 5 mM ATP or 5 mM CoA; CoA DTT-dependent. On the procedure:
as §1, §2

For assay [10], the target named is T7, Aurora A (active) (Homo sapiens, UniProt O14965).
T7 construct: Bacterially expressed full-length His-Aurora A was used to determine the IC50 value for CoA; made in house; host or cells: E. coli BL21 (DE3) pLysS
T7 sequence (O14965 1-403): T1 sequence (O14965 1-403 T217E) with E217T
Kind of assay: In vitro Aurora A kinase assay (γ33P-ATP incorporation into myelin basic protein). Conditions: 5 μM ATP, absence of DTT; read-out: IC50, Aurora A kinase activity. Type of assay: biochemical. On the procedure: Profiling of 117 protein kinases with CoA, dpCoA and ADP was carried out at the International Centre for Protein Kinase Profiling at the University of Dundee. Each compound was tested in vitro, in duplicate, at 100 μM final concentration using recombinant kinases, model substrates and optimal concentrations of ATP. Bacterially expressed full-length His-Aurora A was used to determine the IC50 value for CoA (in the presence or absence of DTT), dpCoA, ADP and desulfo-CoA. The assay was performed in the presence of 5 μM competing ATP. To examine whether the inhibitory effect of CoA on Aurora A is modulated by TPX2, IC50 values for CoA were also generated in the presence and absence of 1 μg TPX2 (residues 1–43) fragment.
Aurora A kinase activity was assayed by measuring incorporation of γ^33P-ATP into myelin basic protein (Sigma). Purified recombinant protein (100 ng) was incubated at room temperature for 30 min in a total volume of 15 μl containing 50 mM HEPES pH 7.5, 10 mM MgCl2, 1 mM EGTA, 0.05% Brij-35, 0.5 mg/ml myelin basic protein, and 5 μM γ^33P-ATP (100–10,000 dpm/pmol). The reaction was stopped by spotting the reaction mixture onto squares of P81 phosphocellulose ion exchange paper (Whatmann), which were then immersed in 1.5% (v/v) phosphoric acid. After washing twice in 1% phosphoric acid followed by two washes in distilled water, the papers were air dried and radioactivity was counted by a scintillation counter and recorded by Quantasmart version 2.03.

The target in assay [11] is T8, FLAG-tagged WT Aurora A (human), O14965.
T8 chain: T1 sequence (O14965 1-403 T217E) with E217T
Description: non-reducing SDS-PAGE and immunoblot of an anti-FLAG immunoprecipitate; FLAG-Aurora A immunoprecipitated from HEK293/Pank1β cells treated 30 min with oxidising agents (250 μM H2O2, 500 μM diamide, 50 μM menadione, 10 μM phenylarsine oxide, 1 μM rotenone); SDS-PAGE under reducing and non-reducing conditions; blots with anti-FLAG and anti-pT288; dimers seen under non-reducing conditions. To be noted: remark: other sources report otherwise.

In assay [12] the target is T9, purified Aurora A (human), O14965.
T9 chain: T1 sequence (O14965 1-403 T217E) with E217T
Kind of assay: non-reducing SDS-PAGE; purified Aurora A briefly exposed to peroxide; reducing compared with non-reducing SDS-PAGE; dimer sensitive to DTT. To be noted: remark: other sources report otherwise.

Changes are numbered by the printed parent chain.

T5 sequence (O14965 whole entry C290A): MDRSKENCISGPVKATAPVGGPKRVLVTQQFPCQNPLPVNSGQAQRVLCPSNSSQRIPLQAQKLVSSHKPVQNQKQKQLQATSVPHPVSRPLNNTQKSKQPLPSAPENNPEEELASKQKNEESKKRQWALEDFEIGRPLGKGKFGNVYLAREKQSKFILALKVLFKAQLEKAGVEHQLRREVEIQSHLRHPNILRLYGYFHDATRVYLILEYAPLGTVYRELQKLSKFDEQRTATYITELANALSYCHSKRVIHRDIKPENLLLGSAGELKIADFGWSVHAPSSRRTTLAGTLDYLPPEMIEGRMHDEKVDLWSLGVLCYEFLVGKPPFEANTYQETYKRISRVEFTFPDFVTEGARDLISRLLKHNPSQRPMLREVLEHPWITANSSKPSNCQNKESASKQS
T6 sequence (O14965 whole entry D274N): as the sequence (O14965 whole entry C290A) above, with D274N, A290C counted along it

In the case of `Nc1ncnc2c1ncn2[C@@H]1O[C@H](COP(=O)(O)O)[C@@H](O)[C@H]1O` [AMP], the “Disruption of bipolar spindle formation and chromosome alignment” value in [1] is reported as “not”.
As to `CN(C)C(=O)/N=N/C(=O)N(C)C` [diamide], the “CoAlation of transiently expressed Aurora A in cells” value in assay [2] is given as “strongly induced”. In assay [3], the “Formation of Aurora A dimers in cells” value is given as “clearly observed” and the “Aurora A phosphorylation at Thr 288 in cells” value (shortened to “Aurora A phosphorylation”) is given as “promoted an increase”.
For `OO` [hydrogen peroxide], in [3], the “Formation of Aurora A dimers in cells” value is listed as “clearly observed” and the “Aurora A phosphorylation” value was “promoted an increase”.
As to `CC1=CC(=O)c2ccccc2C1=O` [menadione], in assay [3], the “Formation of Aurora A dimers in cells” value was “clearly observed” and the “Aurora A phosphorylation” value is “promoted an increase”.
On to `COc1cc(Nc2ncc3c(n2)-c2ccc(Cl)cc2C(c2c(F)cccc2OC)=NC3)ccc1C(=O)O` [MLN8237, alisertib], for which, in [4], the Ligand-induced thermal shift entry was “stabilization”. In addition, the “Change in thermal stability (ΔTm)” value in assay [5] is “marked change in thermal stability”.
In the case of `CC(C)(CO)[C@@H](O)C(=O)NCCC(=O)NCCS` [pantetheine], in [1], the “Disruption of bipolar spindle formation and chromosome alignment” value is “not”.
With `Nc1ncnc2c1ncn2[C@@H]1O[C@H](COP(=O)(O)OP(=O)(O)OP(=O)(O)O)[C@@H](O)[C@H]1O` [ATP], the IC50 in assay [6] is 3 µM; in assay [7] it was 0.2 µM. Also, in [8], the “Ligand binding / thermal stabilization” value is on record as “still bound”. Moreover, the Ligand-induced thermal shift result in [4] is “stabilization”. Also, the “Change in thermal stability (ΔTm)” value in [5] is “marked change in thermal stability”. Also, the “Ligand interaction by thermal shift” value in [9] was “severely blunted”.
For `CCNC(=O)CCNC(=O)[C@H](O)C(C)(C)COP(=O)(O)OP(=O)(O)OC[C@H]1O[C@@H](n2cnc3c(N)ncnc32)[C@H](O)[C@@H]1OP(=O)(O)O` [desulfo-CoA], the IC50 in assay [10] was 160000 nM.

B1: FLAG-tagged WT Aurora A, O14965 1-403 (enzyme)
chain: T1 sequence (O14965 1-403 T217E) with E217T
modifications: here or on the partner: phosphothreonine at 288 (detected with anti-pT288 antibody after oxidising agents); phosphothreonine at 288 (detected with anti-pT288 antibody after oxidising agents)
B1: in assay [11], the stoichiometry N amounted to 2.

B2: purified Aurora A, O14965 1-403 (enzyme)
chain: T1 sequence (O14965 1-403 T217E) with E217T
Regarding B2, the stoichiometry N in assay [12] stood at 2.
